Measured values from US10392428B2, “GLP-1 derivatives and uses thereof” (Novo Nordisk A/S, priority 2014, dated 2019).
Where two headings read alike, the source gives them in different places.

Test: Pharmacokinetic study in minipigs (i.v.)
Settings: male, Göttingen, minipig, in vivo, iv
Procedure: The derivatives of Examples 12, 14, and 15 were dosed 2 nmol/kg. The derivatives of Examples 1 and 2 were dosed 15 nmol/kg.

[1] = minipigs, i.v., 2 nmol/kg, harmonic mean, read-out: Terminal half-live (converted)

Structure (SMILES)	half-life [1]	half-life	other results
CC[C@H](C)[C@H](NC(=O)[C@H](Cc1ccccc1)NC(=O)[C@H](CCC(=O)O)NC(=O)[C@H](CCCNC(=N)N)NC(=O)[C@H](C)NC(=O)[C@H](C)NC(=O)[C@H](CCC(N)=O)NC(=O)[C@H](CCC(=O)O)NC(=O)[C@H](CCC(=O)O)NC(=O)[C@H](CC(C)C)NC(=O)[C@H](Cc1ccc(O)cc1)NC(=O)[C@H](CO)NC(=O)[C@H](CO)NC(=O)[C@@H](NC(=O)[C@H](CC(=O)O)NC(=O)[C@H](CO)NC(=O)[C@@H](NC(=O)[C@H](Cc1ccccc1)NC(=O)[C@@H](NC(=O)CNC(=O)[C@H](CCC(=O)O)NC(=O)C(C)(C)NC(=O)[C@@H](N)Cc1c[nH]cn1)[C@@H](C)O)[C@@H](C)O)C(C)C)C(=O)N[C@@H](C)C(=O)N[C@@H](Cc1c[nH]c2ccccc12)C(=O)N[C@@H](CC(C)C)C(=O)N[C@H](C(=O)N[C@@H](CCCNC(=N)N)C(=O)NCC(=O)N[C@@H](CCCNC(=N)N)C(=O)N[C@@H](CCCCNC(=O)COCCOCCNC(=O)COCCOCCNC(=O)COCCOCCNC(=O)COCCOCCNC(=O)[C@H](CCCCNC(=O)COCCOCCNC(=O)COCCOCCNC(=O)CC[C@H](NC(=O)[C@H]1CC[C@H](CNC(=O)CCCCCCCCCCCCCCCCCCC(=O)O)CC1)C(=O)O)NC(=O)COCCOCCNC(=O)COCCOCCNC(=O)CC[C@H](NC(=O)[C@H]1CC[C@H](CNC(=O)CCCCCCCCCCCCCCCCCCC(=O)O)CC1)C(=O)O)C(=O)O)C(C)C [Example 15]	142 h		
CC[C@H](C)[C@H](NC(=O)[C@H](Cc1ccccc1)NC(=O)[C@H](CCC(=O)O)NC(=O)[C@H](CCCNC(=N)N)NC(=O)[C@H](C)NC(=O)[C@H](C)NC(=O)[C@H](CCC(N)=O)NC(=O)[C@H](CCC(=O)O)NC(=O)[C@H](CCC(=O)O)NC(=O)[C@H](CC(C)C)NC(=O)[C@H](Cc1ccc(O)cc1)NC(=O)[C@H](CO)NC(=O)[C@H](CO)NC(=O)[C@@H](NC(=O)[C@H](CC(=O)O)NC(=O)[C@H](CO)NC(=O)[C@@H](NC(=O)[C@H](Cc1ccccc1)NC(=O)[C@@H](NC(=O)CNC(=O)[C@H](CCC(=O)O)NC(=O)C(C)(C)NC(=O)[C@@H](N)Cc1c[nH]cn1)[C@@H](C)O)[C@@H](C)O)C(C)C)C(=O)N[C@@H](C)C(=O)N[C@@H](Cc1c[nH]c2ccccc12)C(=O)N[C@@H](CC(C)C)C(=O)N[C@H](C(=O)N[C@@H](CCCNC(=N)N)C(=O)NCC(=O)N[C@@H](CCCNC(=N)N)C(=O)N[C@@H](CCCCNC(=O)COCCOCCNC(=O)COCCOCCNC(=O)[C@H](CCCCNC(=O)COCCOCCNC(=O)COCCOCCNC(=O)COCCOCCNC(=O)COCCOCCNC(=O)CC[C@H](NC(=O)[C@H]1CC[C@H](CNC(=O)CCCCCCCCCCCCCCCCCCC(=O)O)CC1)C(=O)O)NC(=O)COCCOCCNC(=O)COCCOCCNC(=O)COCCOCCNC(=O)COCCOCCNC(=O)CC[C@H](NC(=O)[C@H]1CC[C@H](CNC(=O)CCCCCCCCCCCCCCCCCCC(=O)O)CC1)C(=O)O)C(=O)O)C(C)C [Example 14]	135 h		
CC[C@H](C)[C@H](NC(=O)[C@H](Cc1ccccc1)NC(=O)[C@H](CCC(=O)O)NC(=O)[C@H](CCCNC(=N)N)NC(=O)[C@H](C)NC(=O)[C@H](C)NC(=O)[C@H](CCC(N)=O)NC(=O)[C@H](CCC(=O)O)NC(=O)[C@H](CCC(=O)O)NC(=O)[C@H](CC(C)C)NC(=O)[C@H](Cc1ccc(O)cc1)NC(=O)[C@H](CO)NC(=O)[C@H](CO)NC(=O)[C@@H](NC(=O)[C@H](CC(=O)O)NC(=O)[C@H](CO)NC(=O)[C@@H](NC(=O)[C@H](Cc1ccccc1)NC(=O)[C@@H](NC(=O)CNC(=O)[C@H](CCC(=O)O)NC(=O)C(C)(C)NC(=O)[C@@H](N)Cc1c[nH]cn1)[C@@H](C)O)[C@@H](C)O)C(C)C)C(=O)N[C@@H](C)C(=O)N[C@@H](Cc1c[nH]c2ccccc12)C(=O)N[C@@H](CC(C)C)C(=O)N[C@H](C(=O)N[C@@H](CCCNC(=N)N)C(=O)NCC(=O)N[C@@H](CCCNC(=N)N)C(=O)N[C@@H](CCCCNC(=O)COCCOCCNC(=O)COCCOCCNC(=O)[C@H](CCCCNC(=O)COCCOCCNC(=O)COCCOCCNC(=O)CC[C@H](NC(=O)[C@H]1CC[C@H](CNC(=O)CCCCCCCCCCCCCCCCCCC(=O)O)CC1)C(=O)O)NC(=O)COCCOCCNC(=O)COCCOCCNC(=O)CC[C@H](NC(=O)[C@H]1CC[C@H](CNC(=O)CCCCCCCCCCCCCCCCCCC(=O)O)CC1)C(=O)O)C(=O)O)C(C)C [Example 2, N{Epsilon-37}-[2-[2-[2-[[2-[2-[2-[[(2S)-2,6-bis[[2-[2-[2-[[2-[2-[2-[[(4S)-4-carboxy-4-[[4-[(19-carboxynonadecanoylamino)methyl]cyclohexanecarbonyl]amino]butanoyl]amino]ethoxy]ethoxy]acetyl]amino]ethoxy]ethoxy]acetyl]amino]hexanoyl]amino]ethoxy]ethoxy]acetyl]amino]ethoxy]ethoxy]acetyl]-[Aib8,Glu22,Arg26,Arg34,Lys37]-GLP-1-(7-37)-peptide]			half-life (minipigs, i.v., 15 nmol/kg, harmonic mean, read-out: Terminal half-live (converted)): 130 h
CC[C@H](C)[C@H](NC(=O)[C@H](Cc1ccccc1)NC(=O)[C@H](CCC(=O)O)NC(=O)[C@H](CCCNC(=N)N)NC(=O)[C@H](C)NC(=O)[C@H](C)NC(=O)[C@H](CCC(N)=O)NC(=O)[C@H](CCC(=O)O)NC(=O)[C@H](CCC(=O)O)NC(=O)[C@H](CC(C)C)NC(=O)[C@H](Cc1ccc(O)cc1)NC(=O)[C@H](CO)NC(=O)[C@H](CO)NC(=O)[C@@H](NC(=O)[C@H](CC(=O)O)NC(=O)[C@H](CO)NC(=O)[C@@H](NC(=O)[C@H](Cc1ccccc1)NC(=O)[C@@H](NC(=O)CNC(=O)[C@H](CCC(=O)O)NC(=O)C(C)(C)NC(=O)[C@@H](N)Cc1c[nH]cn1)[C@@H](C)O)[C@@H](C)O)C(C)C)C(=O)N[C@@H](C)C(=O)N[C@@H](Cc1c[nH]c2ccccc12)C(=O)N[C@@H](CC(C)C)C(=O)N[C@H](C(=O)N[C@@H](CCCNC(=N)N)C(=O)NCC(=O)N[C@@H](CCCNC(=N)N)C(=O)N[C@@H](CCCCNC(=O)COCCOCCNC(=O)COCCOCCNC(=O)COCCOCCNC(=O)COCCOCCNC(=O)COCCOCCNC(=O)COCCOCCNC(=O)COCCOCCNC(=O)COCCOCCNC(=O)[C@H](CCCCNC(=O)CC[C@H](NC(=O)[C@H]1CC[C@H](CNC(=O)CCCCCCCCCCCCCCCCCCC(=O)O)CC1)C(=O)O)NC(=O)CC[C@H](NC(=O)[C@H]1CC[C@H](CNC(=O)CCCCCCCCCCCCCCCCCCC(=O)O)CC1)C(=O)O)C(=O)O)C(C)C [Example 13]			half-life (minipigs, i.v., 5 nmol/kg, harmonic mean, read-out: Terminal half-live (converted)): 119 h
CCCCCCCCCCCCCC(=O)NCCOCCOCC(=O)NCCCC[C@H](NC(=O)COCCOCCNC(=O)CCCCCCCCCCCCC)C(=O)NCCOCCOCC(=O)NCCCC[C@H](NC(=O)[C@H](CCCNC(=N)N)NC(=O)C(C)(C)NC(=O)[C@H](CCCCN)NC(=O)[C@@H](NC(=O)[C@H](CC(C)C)NC(=O)[C@H](Cc1c[nH]c2ccccc12)NC(=O)[C@H](C)NC(=O)[C@@H](NC(=O)[C@H](Cc1ccccc1)NC(=O)[C@H](CCC(=O)O)NC(=O)[C@H](CCCCN)NC(=O)[C@H](C)NC(=O)[C@H](C)NC(=O)[C@H](CCC(N)=O)NC(=O)C(C)(C)NC(=O)[C@H](CCC(=O)O)NC(=O)[C@H](CC(C)C)NC(=O)[C@H](Cc1ccc(O)cc1)NC(=O)[C@H](CO)NC(=O)[C@H](CO)NC(=O)[C@@H](NC(=O)[C@H](CC(=O)O)NC(=O)[C@H](CO)NC(=O)[C@@H](NC(=O)[C@H](Cc1ccccc1)NC(=O)[C@@H](NC(=O)CNC(=O)[C@H](CCC(=O)O)NC(=O)C(C)(C)NC(=O)[C@@H](N)Cc1c[nH]cn1)[C@@H](C)O)[C@@H](C)O)C(C)C)[C@@H](C)CC)C(C)C)C(N)=O [Comparative Example 2, N{Epsilon-37}-[2-[2-[2-[[(2S)-2,6-bis[[2-[2-[2-(tetradecanoylamino)ethoxy]ethoxy]acetyl]amino]hexanoyl]amino]ethoxy]ethoxy]acetyl]-[Aib8,Aib22,Aib35,Lys37]-GLP-1-(7-37)-peptide Amide, reference compound]		3 h	
CCCCCCCCCCCC(=O)NCCOCCOCC(=O)NCCCC[C@H](NC(=O)COCCOCCNC(=O)CCCCCCCCCCC)C(=O)NCCOCCOCC(=O)NCCCC[C@H](NC(=O)[C@H](CCCNC(=N)N)NC(=O)C(C)(C)NC(=O)[C@H](CCCCN)NC(=O)[C@@H](NC(=O)[C@H](CC(C)C)NC(=O)[C@H](Cc1c[nH]c2ccccc12)NC(=O)[C@H](C)NC(=O)[C@@H](NC(=O)[C@H](Cc1ccccc1)NC(=O)[C@H](CCC(=O)O)NC(=O)[C@H](CCCCN)NC(=O)[C@H](C)NC(=O)[C@H](C)NC(=O)[C@H](CCC(N)=O)NC(=O)C(C)(C)NC(=O)[C@H](CCC(=O)O)NC(=O)[C@H](CC(C)C)NC(=O)[C@H](Cc1ccc(O)cc1)NC(=O)[C@H](CO)NC(=O)[C@H](CO)NC(=O)[C@@H](NC(=O)[C@H](CC(=O)O)NC(=O)[C@H](CO)NC(=O)[C@@H](NC(=O)[C@H](Cc1ccccc1)NC(=O)[C@@H](NC(=O)CNC(=O)[C@H](CCC(=O)O)NC(=O)C(C)(C)NC(=O)[C@@H](N)Cc1c[nH]cn1)[C@@H](C)O)[C@@H](C)O)C(C)C)[C@@H](C)CC)C(C)C)C(N)=O [Comparative Example 1, N{Epsilon-37}-[2-[2-[2-[[(2S)-2,6-bis[[2-[2-[2-(dodecanoylamino)ethoxy]ethoxy]acetyl]amino]hexanoyl]amino]ethoxy]ethoxy]acetyl]-[Aib8,Aib22,Aib35,Lys37]-GLP-1-(7-37)-peptide Amide, reference compound]		3 h	
